Results as given in patent publication EP0900210B1, “ANTIVIRALLY ACTIVE HETEROCYCLIC AZAHEXANE DERIVATIVES” (Novartis AG, priority 1996, dated 1997).

These compounds were tested against T1, HIV-1-protease (Human immunodeficiency virus type 1 group M subtype B, UniProt P04585) (assay: Inhibition of HIV-1-protease with icosapeptide substrate […] (HPLC)). Conditions: icosapeptide […] 122 µM, 20 mM MES pH 6.0, one hour at 37°C; read-out: IC50.
T1 construct: made in house
Assay type: biochemical
Protocol: The inhibitory action of the compounds of formula I on the proteolytic activity of HIV-1-protease can be shown, for example, according to known procedures (see A. D. Richards et al., J. Biol. Chem. 265(14), 7733-7736 (1990)). In that method the inhibition of the action of HIV-1-protease (preparation: see S. Billich et al., J. Biol. Chem. 263(34), 17905-17908 (1990)) is measured in the presence of the icosapeptide […] (a synthetic substrate of HIV-1-protease, prepared by peptide synthesis in accordance with known procedures (see J. Schneider et al., Cell 54, 363-368 (1988)), which contains as substrate analogue one of the cleavage sites of the gag-precursor protein (natural substrate of HIV-1-protease). That substrate and its cleavage products are analysed by high performance liquid chromatography (HPLC).
The test compound is dissolved in dimethyl sulfoxide. The enzymatic test is carried out by adding suitable dilutions of the inhibitor in 20 mM β-morpholinoethanesulfonic acid (MES) buffer pH 6.0 to the test mixture. That mixture consists of the above-mentioned icosapeptide (122 µM) in 20 mM MES-buffer pH 6.0. 100 µl are used per test batch. The reaction is started by the addition of […] of HIV-1-protease solution and is stopped after one hour's incubation at 37°C by the addition of 10 µl of 0.3M HClO4. After centrifugation of the sample at 10 000 x g for 5 minutes, 20 µl of the resulting supernatant are applied to a 125 x 4.6 mm Nucleosil® C18-5m-HPLC column (reversed-phase material supplied by Macherey & Nagel, Düren, FRG, based on silica gel that has been charged with C18alkyl chains). The uncleaved icosapeptide and its cleavage products are eluted from the column by means of the following gradient: 100 % eluant 1 → 50 % eluant 1 + 50 % eluant 2 (eluant 1: 10 % acetonitrile, 90 % H2O, 0.1 % trifluoroacetic acid (TFA); eluant 2: 75 % acetonitrile, 25 % H2O, 0.08 % TFA) for 15 minutes, throughflow rate 1 ml/min. The quantification of the eluted peptide fragments is carried out by measuring the peak height of the cleavage product at 215 nm.
Using the test system described above with the icosapeptide […], the IC50 values given below are obtained for the following Examples: […]

Point of comparison: `COC(=O)N[C@H](C(=O)N[C@@H](Cc1ccccc1)[C@@H](O)CN(Cc1ccc(-c2nnn[nH]2)cc1)NC(=O)[C@@H](NC(=O)OC)C(C)(C)C)C(C)(C)C` [Example 26, 1-[4-(Tetrazol-5-yl)-phenyl]-4(S)-hydroxy-5(S)-2,5-bis[N-(N-methoxycarbonyl-(L)-tert-leucyl)amino]-6-phenyl-2-azahexane], IC50 21 nM. Against it:
- CCOC(=O)N[C@H](C(=O)NN(Cc1ccc(-c2nccs2)cc1)C[C@H](O)[C@H](Cc1ccccc1)NC(=O)[C@@H](NC(=O)OC)C(C)C)C(C)C [Example 19, 1-[4-(Thiazol-2-yl)-phenyl]-4(S)-hydroxy-2-N-(N-ethoxycarbonyl-(L)-valyl)amino-5(S)-N-(N-methoxycarbonyl-(L)-valyl)amino-6-phenyl-2-azahexane] — within 1.5-fold, 22 nM
- COC(=O)N[C@H](C(=O)N[C@@H](Cc1ccccc1)[C@@H](O)CN(Cc1ccc(-c2nccs2)cc1)NC(=O)[C@@H](NC(=O)OC)C(C)C)C(C)C [Example 20, 1-[4-(Thiazol-2-yl)-phenyl]-4(S)-hydroxy-5(S)-2,5-bis[N-(N-methoxycarbonyl-(L)-valyl)amino]-6-phenyl-2-azahexane] — within 1.5-fold, 15 nM
- CC[C@H](C)[C@H](NC(=O)OC)C(=O)N[C@@H](Cc1ccccc1)[C@@H](O)CN(Cc1ccc(-c2nccs2)cc1)NC(=O)[C@@H](NC(=O)OC)C(C)(C)C [Example 21, 1-[4-(Thiazol-2-yl)-phenyl]-4(S)-hydroxy-2-N-(N-methoxycarbonyl-(L)-tert-leucyl)amino-5(S)-N-(N-methoxycarbonyl-(L)-iso-leucyl)amino-6-phenyl-2-azahexane] — 2-fold higher, 43 nM
- CCOC(=O)N[C@H](C(=O)NN(Cc1ccc(-c2nccs2)cc1)C[C@H](O)[C@H](Cc1ccccc1)NC(=O)[C@@H](NC(=O)OC)[C@@H](C)CC)C(C)C [Example 22, 1-[4-(Thiazol-2-yl)-phenyl]-4(S)-hydroxy-2-N-(N-ethoxycarbonyl-(L)-valyl)amino-5(S)-N-(N-methoxycarbonyl-(L)-iso-leucyl)amino-6-phenyl-2-azahexane] — 1.9-fold higher, 40 nM
- CC[C@H](C)[C@H](NC(=O)OC)C(=O)N[C@@H](Cc1ccccc1)[C@@H](O)CN(Cc1ccc(-c2nccs2)cc1)NC(=O)[C@@H](NC(=O)OC)C(C)C [Example 23, 1-[4-(Thiazol-2-yl)-phenyl]-4(S)-hydroxy-2-N-(N-methoxycarbonyl-(L)-valyl)amino-5(S)-N-(N-methoxycarbonyl-(L)-iso-leucyl)amino-6-phenyl-2-azahexane] — 1.6-fold higher, 34 nM
- CC[C@H](C)[C@H](NC(=O)OC)C(=O)N[C@@H](Cc1ccccc1)[C@@H](O)CN(Cc1ccc(-c2nccs2)cc1)NC(=O)[C@H](CSC)NC(=O)OC [Example 24, 1-[4-(Thiazol-2-yl)-phenyl]-4(S)-hydroxy-2-N-(N-methoxycarbonyl-(L)-S-methylcysteinyl)amino-5(S)-N-(N-methoxycarbonyl-(L)-iso-leucyl)amino-6-phenyl-2-azahexane] — 2.4-fold higher, 50 nM
- COC(=O)N[C@H](C(=O)N[C@@H](Cc1ccccc1)[C@@H](O)CN(Cc1ccc(-c2nnn(C(C)(C)c3ccccc3)n2)cc1)NC(=O)[C@@H](NC(=O)OC)C(C)(C)C)C(C)(C)C [Example 25, 1-{4-[2-(1-Methyl-1-phenyl-ethyl)-2H-tetrazol-5-yl]-phenyl}-4(S)-hydroxy-5(S)-2,5-bis[N-(N-methoxycarbonyl-(L)-tert-leucyl)amino]-6-phenyl-2-azahexane] — 4.8-fold higher, 100 nM
- COC(=O)N[C@H](C(=O)N[C@@H](Cc1ccccc1)[C@@H](O)CN(Cc1ccc(-c2nnn(C)n2)cc1)NC(=O)[C@@H](NC(=O)OC)C(C)(C)C)C(C)(C)C [Example 27, 1-[4-(2-Methyl-2H-tetrazol-5-yl)-phenyl]-4(S)-hydroxy-5(S)-2,5-bis[N-(N-methoxycarbonyl-(L)-tert-leucyl)amino]-6-phenyl-2-azahexane] — within 1.5-fold, 27 nM
